Structures are written as SMILES.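 Step 1: Grow cells in 96-well plates. Step 2: Expose to compound for 48 hours at 5 concentrations. Step 3: Interpolate endpoints linearly; if unreached, use highest concentration. GI50 marks 50% less growth.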 Calls of active or inactive are those of the source. No stated cut-off is given here; in the data, active = GI50 up to about 1.1 µM and inactive = higher.

Holding throughout (assay): inhibition of tumour cell growth, NCI panel, 48 h
The test system of assay [1] is NCI-H460.
The subject of assay [2] is UO-31.
Assay [3] has as its system OVCAR-4.
Assay [4] relates to OVCAR-8.
Assay [5] relates to HCC 2998.
Assay [6] deals with RXF 393.
In assay [7] the test system is A498.
Assay [8] concerns HT-29.
The test system of assay [9] is 786-0.
The subject of assay [10] is M14.
The subject of assay [11] is SN12C.
Assay [12] has as its system KM12.
The test system of assay [13] is NCI-H522.
Assay [14] has as its system HCT-15.
The test system of assay [15] is A549.
Assay [16] has as its system SNB-19.
The subject of assay [17] is SF-539.
Assay [18] deals with HL-60.
The test system of assay [19] is MDA-MB-435.
The test system of assay [20] is NCI-H226.

As to `O=[N+]([O-])/C(C(Cl)=C(Cl)Cl)=C1\NCCO1`, the GI50 is > 100 µM (inactive) in assay [1]; > 100 µM (inactive) in assay [2]; 35.1 µM (inactive) in [3]; > 100 µM (inactive) in [4]; > 100 µM (inactive) in assay [5]; 90.4 µM (inactive) in assay [6]. Further, the GI50 in assay [7], in [8], in assay [9], in [10], in assay [11] and in assay [12] was > 100 µM (inactive) in each case. Moreover, the GI50 was > 100 µM (inactive) in assay [13]; over 100 µM in assay [14]; > 100 µM (inactive) in [15]; > 100 µM (inactive) in [16]; > 100 µM (inactive) in assay [17]; 81.5 µM (inactive) in [18]. For the same molecule, the results for the GI50 in [19] and in assay [20] were > 100 µM (inactive) and 39.3 µM (inactive), respectively.
As to `O=C(/N=S(/NC(=O)c1ccccc1)C(Cl)(Cl)Cl)c1ccccc1` (stereo not given), the GI50 in [1] was 30.5 µM (inactive); in assay [2], 16.3 µM (inactive); in [3], 17.4 µM (inactive); in assay [4] it was 15.5 µM (inactive); in assay [5] it was 34.8 µM (inactive); in [6] it was 12.1 µM (inactive). Moreover, the GI50 in assay [7] was 27 µM (inactive); in assay [8], 18.9 µM (inactive); in assay [9] it was 28.1 µM (inactive); in assay [10] it was 10.5 µM (inactive); in [11], 24.7 µM (inactive); in [12], > 65 µM (inactive). In addition, the GI50 in assay [13] was 30.3 µM (inactive); in assay [14] it was 8.59 µM; in assay [15], > 56.9 µM (inactive); in assay [16], 51.2 µM (inactive); in [17], 21.1 µM (inactive); in assay [18] it was 4.89 µM (inactive). In addition, the values for the GI50 in assay [19] and in assay [20] were 17.7 µM (inactive) and 25.6 µM (inactive), respectively.
As for `O=C1CC(NC(=O)C(F)(F)F)c2c(Br)sc(N3CCNCC3)c21` (stereo not given), the GI50 in assay [1] was > 100 µM (inactive); in assay [2], 61.4 µM (inactive); in [3], > 100 µM (inactive); in assay [4], > 100 µM (inactive); in assay [5] it was > 100 µM (inactive); in assay [6] it was > 100 µM (inactive). The GI50 in assay [7] is > 100 µM (inactive); in assay [8], 85.7 µM (inactive); in [9], > 100 µM (inactive); in assay [10], > 100 µM (inactive); in [11], > 100 µM (inactive); in [12], > 100 µM (inactive). Moreover, the GI50 in [13] is > 100 µM (inactive); in assay [14] it was over 100 µM; in assay [15], > 100 µM (inactive); in [16] it was > 100 µM (inactive); in assay [17], > 100 µM (inactive); in assay [18] it was > 100 µM (inactive). In addition, the GI50 in [19] and in assay [20] was > 100 µM (inactive) in each case.
`O=C(NC(=O)c1c(Cl)nc2sccn12)Nc1ccc(Cl)cc1`: the GI50 in assay [1] is > 85.9 µM (inactive); in assay [2], 67.1 µM (inactive); in [3] it was 75.3 µM (inactive); in assay [4], 52.6 µM (inactive); in assay [5] it was 54.1 µM (inactive); in [6] it was 30.9 µM (inactive). The GI50 in assay [7] is 49.3 µM (inactive); in assay [8], > 100 µM (inactive); in assay [9] it was 35.4 µM (inactive); in assay [10], 78.3 µM (inactive); in assay [11] it was 86.5 µM (inactive); in [12] it was > 93.5 µM (inactive). Moreover, the GI50 is 61 µM (inactive) in assay [13]; over 96.4 µM in assay [14]; 81.3 µM (inactive) in assay [15]; 28.4 µM (inactive) in assay [16]; 30 µM (inactive) in assay [17]; > 100 µM (inactive) in assay [18]. Further, the GI50 in [19] is > 100 µM (inactive); in [20], 45.2 µM (inactive).
As for `CSc1ccc2c(c1)C(N1CCN(C)CC1)Cc1ccccc1S2` (stereo not given), the GI50 in [1] was 2.47 µM (inactive); in [2], 3.63 µM (inactive); in assay [3], 2.3 µM (inactive); in assay [4], 6.84 µM (inactive); in assay [5] it was 11.1 µM (inactive); in assay [6] it was 2.81 µM (inactive). In addition, the GI50 was 9.79 µM (inactive) in [7]; 2.33 µM (inactive) in [8]; 4.47 µM (inactive) in [9]; 1.95 µM (inactive) in [10]; 6.28 µM (inactive) in assay [11]; 2.62 µM (inactive) in [12]. The GI50 in assay [13] is 2.99 µM (inactive); in assay [14], 4.15 µM; in assay [15] it was 7.18 µM (inactive); in [16], 13.3 µM (inactive); in [17] it was 6.11 µM (inactive); in assay [18] it was 2.69 µM (inactive). Also, the GI50 in [19] was 2.32 µM (inactive); in assay [20], 7.8 µM (inactive).
Regarding `C=C1C(=O)O[C@H]2[C@H]3O[C@@H](C[C@@H]12)[C@](C)(O)CC[C@@H]1O[C@@]1(C)CCC[C@H]3C`, the GI50 in assay [1] is 24.8 µM (inactive); in [2] it was 22.2 µM (inactive); in assay [3], 16.5 µM (inactive); in assay [4], 15.7 µM (inactive); in assay [5], 25.8 µM (inactive); in [6], 13 µM (inactive). Besides, the GI50 is 23.6 µM (inactive) in [7]; 25.6 µM (inactive) in assay [8]; 11.7 µM (inactive) in assay [9]; 12 µM (inactive) in [10]; 20.3 µM (inactive) in assay [11]; 20 µM (inactive) in assay [12]. Besides, the GI50 in assay [13] is 18.1 µM (inactive); in assay [14] it was 16.9 µM; in assay [15] it was 25.5 µM (inactive); in [16] it was 36.3 µM (inactive); in [17], 18.7 µM (inactive); in assay [18], 27 µM (inactive). Also, the figures for the GI50 in [19] and in [20] were 17.1 µM (inactive) and 23.3 µM (inactive), respectively.
With `NC(=O)[C@H](Cc1ccc(O)cc1)NC1=C(Cl)C(=O)c2c(O)ccc(O)c2C1=O`, the GI50 in assay [1] is 7.76 µM (inactive); in assay [2] it was 4 µM (inactive); in assay [3], 1.83 µM (inactive); in [4], 2.54 µM (inactive); in [5] it was 2.37 µM (inactive); in assay [6] it was 3.52 µM (inactive). The GI50 in assay [7] is 4.4 µM (inactive); in assay [8], 2.38 µM (inactive); in [9], 2.02 µM (inactive); in assay [10], 3.14 µM (inactive); in assay [11] it was 3.55 µM (inactive); in assay [12] it was 2.67 µM (inactive). In addition, the GI50 in assay [13] is 1.63 µM (inactive); in assay [14], 1.79 µM; in assay [15] it was 7.73 µM (inactive); in assay [16] it was > 10 µM (inactive); in assay [17], 2.17 µM (inactive); in [18], 1.04 µM (active). Besides, the GI50 was 2.07 µM (inactive) in [19] and > 10 µM (inactive) in assay [20].

The values above are taken from ChEMBL document CHEMBL1201862, “PubChem BioAssay data set” (2004).
